This is an account of results in US7803792B2, “Quaternary ammonium compounds” (Asahi Kasei Pharma Corporation, priority 2002, dated 2010).

SMILES strings stand for the structures.

This assay deals with T1, human IBAT (Homo sapiens, UniProt Q12908).
T1 construct: expressed in transfected cells; host or cells: Cos 7
T1 sequence (Q12908 1-348): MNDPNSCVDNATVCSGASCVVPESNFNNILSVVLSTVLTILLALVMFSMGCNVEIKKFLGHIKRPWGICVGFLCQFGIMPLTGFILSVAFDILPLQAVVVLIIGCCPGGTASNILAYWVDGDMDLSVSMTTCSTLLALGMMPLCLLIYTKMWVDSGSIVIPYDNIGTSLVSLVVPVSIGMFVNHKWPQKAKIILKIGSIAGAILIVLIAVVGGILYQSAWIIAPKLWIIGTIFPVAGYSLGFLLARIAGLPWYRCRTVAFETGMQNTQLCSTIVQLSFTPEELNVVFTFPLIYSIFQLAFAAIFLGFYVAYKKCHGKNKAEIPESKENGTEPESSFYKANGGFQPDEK
Nature of the assay: In vitro assay of temporarily expressed human IBAT transporter using Cos 7 cells (Test Example 8). Conditions: Cos 7 cells temporarily expressing human IBAT; [3H] taurocholate 8 μM, 37° C., 60 minutes. Format: cell-based. As for the experimental part:
In Vitro Assay of Compounds Which Inhibit Temporarily Expressed Human IBAT Transporter or Rat IBAT Transporter Using Cos 7 Cells
In this test example, the in vitro assay of the compounds which inhibit temporarily expressed human IBAT transporter or rat IBAT transporter using Cos cells was carried out according to the method described in Am. J. Physiol., 274, G157-169.
That is, […] Cos 7 were inoculated on a 24-well cell plate. One day later, 0.3 μg per well of cDNA of a human IBAT or a rat IBAT was transfected by using FuGENE6 (manufactured by ROCHE PHARMACEUTICAL CO., LTD.). For the assay, the cells cultured for one day after the transfection were used and the following procedure was followed. The cells were washed once with an assay buffer, Hank's buffer solution containing 25 mM glucose and with 10 mM HEPES (pH 7.4), and then the assay buffer was replaced by an assay buffer to which the test compound was added. After adding [^3H] taurocholate to a final concentration of 8 μM, the cells were incubated at 37° C. for 60 minutes. [^3H] taurocholate was allowed to be incorporated in Cos 7 cells through human IBAT or rat IBAT. The reaction was stopped by washing twice with a buffer prepared by adding 1 mM taurocholate to the assay buffer and lyzing the cells with 0.2M NaOH. Measurement of radioactivity was carried out by introducing the cell lyzate in 4 ml of liquid scintillation cocktail, stirring the mixture well, and then measuring the radioactivity by a scintillation counter.

On to `CCCCC1(CCCC)CS(=O)(=O)c2ccc(N(C)C)cc2C(c2cccc(NC(=S)NCCCCC[N+]34CCC(CC3)CC4)c2)N1` (centres unmarked) [Example 1433], for which the IC50 is 103 nM.
With `CCCCC1(CCCC)CS(=O)(=O)c2ccc(N(C)C)cc2C(c2cccc(NC(=S)NCCCCCC[N+](C)(C)Cc3ccccc3)c2)N1` (centres unmarked) [Example 1555], the IC50 stood at 153 nM.
The value for `CCCCC1(CCCC)CS(=O)(=O)c2ccc(N(C)C)cc2C(c2cccc(NC(=S)NCCCCCC[N+]34CCC(CC3)CC4)c2)N1` (centres unmarked) [Example 1810] was 167 nM.
In turn, `CCCCCC[N+](C)(C)Cc1ccc(NC(=S)Nc2cccc(C3NC(CCCC)(CCCC)CS(=O)(=O)c4ccc(N(C)C)cc43)c2)cc1` (centres unmarked) [Example 3410] came in with an IC50 of 68 nM.
The value for `CCCCCCCC[N+](C)(C)Cc1ccc(NC(=S)Nc2cccc(C3NC(CCCC)(CCCC)CS(=O)(=O)c4ccc(N(C)C)cc43)c2)cc1` (centres unmarked) [Example 3412] was 75 nM; that for `CCCCCCCCC[N+](C)(C)Cc1ccc(NC(=S)Nc2cccc(C3NC(CCCC)(CCCC)CS(=O)(=O)c4ccc(N(C)C)cc43)c2)cc1` (centres unmarked) [Example 3413] was 73 nM.
Regarding `CCCCCCCCCC[N+](C)(C)Cc1ccc(NC(=S)Nc2cccc(C3NC(CCCC)(CCCC)CS(=O)(=O)c4ccc(N(C)C)cc43)c2)cc1` (centres unmarked) [Example 3414], 88 nM corresponded to half-maximal inhibition (IC50).
In the case of `CCCCC1(CCCC)CS(=O)(=O)c2ccc(N(C)C)cc2C(c2cccc(NC(=S)Nc3ccc(C[N+](C)(CCC)CCC)cc3)c2)N1` (centres unmarked) [Example 3426], the IC50 came to 58 nM.
The value for `C=CC[N+](C)(C)Cc1ccc(NC(=S)Nc2cccc(C3NC(CCCC)(CCCC)CS(=O)(=O)c4ccc(N(C)C)cc43)c2)cc1` (centres unmarked) [Example 3429] was 55 nM; that for `C#CC[N+](C)(C)Cc1ccc(NC(=S)Nc2cccc(C3NC(CCCC)(CCCC)CS(=O)(=O)c4ccc(N(C)C)cc43)c2)cc1` (centres unmarked) [Example 3433] was 55 nM.
The value for `CCC#CC[N+](C)(C)Cc1ccc(NC(=S)Nc2cccc(C3NC(CCCC)(CCCC)CS(=O)(=O)c4ccc(N(C)C)cc43)c2)cc1` (centres unmarked) [Example 3434] was 71 nM; that for `CCCCC1(CCCC)CS(=O)(=O)c2ccc(N(C)C)cc2C(c2cccc(NC(=S)Nc3ccc(C[N+](C)(C)C(C)c4ccccc4)cc3)c2)N1` (centres unmarked) [Example 3441] was 85 nM; that for `CCCCC1(CCCC)CS(=O)(=O)c2ccc(N(C)C)cc2C(c2cccc(NC(=S)Nc3ccc(C[N+](C)(C)Cc4cccs4)cc3)c2)N1` (centres unmarked) [Example 3449] was 55 nM.
For the compound `CCCCC1(CCCC)CS(=O)(=O)c2ccc(N(C)C)cc2C(c2cccc(NC(=S)Nc3ccc(C[N+](C)(C)CC(C)O)cc3)c2)N1` (centres unmarked) [Example 3454], half-maximal inhibition (IC50) required 68 nM.
On to `CCCCC1(CCCC)CS(=O)(=O)c2ccc(N(C)C)cc2C(c2cccc(NC(=S)Nc3ccc(C[N+](C)(C)CCOC(=O)c4ccccc4)cc3)c2)N1` (centres unmarked) [Example 3558], for which the half-maximal inhibitory concentration (IC50) came to 70 nM.
In the case of `CCCCC1(CCCC)CS(=O)(=O)c2ccc(N(C)C)cc2C(c2cccc(NC(=S)Nc3ccc(C[N+]4(CC)CCCC4)cc3)c2)N1` (centres unmarked) [Example 3568], the IC50 is 94 nM.
Consider `CCCCC1(CCCC)CS(=O)(=O)c2ccc(N(C)C)cc2C(c2cccc(NC(=S)Nc3ccc(C[N+]4(C)CCCCC4)cc3)c2)N1` (centres unmarked) [Example 3587], for which the IC50 stood at 70 nM.
In turn, `CCCCC1(CCCC)CS(=O)(=O)c2ccc(N(C)C)cc2C(c2cccc(NC(=S)Nc3ccc(C[N+]4(Cc5ccccc5)CCCCC4)cc3)c2)N1` (centres unmarked) [Example 3593] registered an IC50 of 70 nM.
The figure for `CCCCC1(CCCC)CS(=O)(=O)c2ccc(N(C)C)cc2C(c2cccc(NC(=S)Nc3ccc(C[N+]4(C)CCC(O)CC4)cc3)c2)N1` (centres unmarked) [Example 3599] is 54 nM; for `CCCCC1(CCCC)CS(=O)(=O)c2ccc(N(C)C)cc2C(c2cccc(NC(=S)Nc3ccc(C[N+]4(Cc5ccccc5)CCCC(O)C4)cc3)c2)N1` (centres unmarked) [Example 3604] it is 45 nM.
On to `CCCCC1(CCCC)CS(=O)(=O)c2ccc(N(C)C)cc2C(c2cccc(NC(=S)Nc3ccc(C[N+]45CCC(CC4)C(O)C5)cc3)c2)N1` (centres unmarked) [Example 3697], for which the half-maximal inhibitory concentration (IC50) turned out to be 69 nM.
For `CCCCC1(CCCC)CS(=O)(=O)c2ccc(N(C)C)cc2C(c2cccc(NC(=S)Nc3ccc(C[N+]45CCC(CC4)C(=O)C5)cc3)c2)N1` (centres unmarked) [Example 3698], the IC50 came to 72 nM.
For `CCCCC1(CCCC)CS(=O)(=O)c2ccc(N(C)C)cc2C(c2cccc(NC(=S)Nc3ccc(C[n+]4ccccc4)cc3)c2)N1` (centres unmarked) [Example 3708], the IC50 stood at 70 nM.
`CCCCC1(CCCC)CS(=O)(=O)c2ccc(N(C)C)cc2C(c2cccc(NC(=S)Nc3ccc(C[n+]4ccc(CCC)cc4)cc3)c2)N1` (centres unmarked) [Example 3711] gave a concentration for half-maximal inhibition (IC50) of 63 nM.
On to `CCCCC(CCCC)c1cc[n+](Cc2ccc(NC(=S)Nc3cccc(C4NC(CCCC)(CCCC)CS(=O)(=O)c5ccc(N(C)C)cc54)c3)cc2)cc1` (centres unmarked) [Example 3716], for which the IC50 amounted to 89 nM.
`CCCCC1(CCCC)CS(=O)(=O)c2ccc(N(C)C)cc2C(c2cccc(NC(=S)Nc3ccc(C[n+]4ccc(-c5ccccc5)cc4)cc3)c2)N1` (centres unmarked) [Example 3717] gave an IC50 of 30 nM.
`CCCCC1(CCCC)CS(=O)(=O)c2ccc(N(C)C)cc2C(c2cccc(NC(=S)Nc3ccc(C[n+]4cccc(CC)c4)cc3)c2)N1` (centres unmarked) [Example 3722] yielded an IC50 of 39 nM.
`CCCCC1(CCCC)CS(=O)(=O)c2ccc(N(C)C)cc2C(c2cccc(NC(=S)Nc3ccc(C[n+]4cccc(-c5ccccc5)c4)cc3)c2)N1` (centres unmarked) [Example 3724] showed an IC50 of 69 nM.
On to `CCCCC1(CCCC)CS(=O)(=O)c2ccc(N(C)C)cc2C(c2cccc(NC(=S)Nc3ccc(C[n+]4cccc(Cc5ccccc5)c4)cc3)c2)N1` (centres unmarked) [Example 3725], for which it took 52 nM to reach half-maximal inhibition (IC50).
`CCCCC1(CCCC)CS(=O)(=O)c2ccc(N(C)C)cc2C(c2cccc(NC(=S)Nc3ccc(C[n+]4cccc(-c5cccs5)c4)cc3)c2)N1` (centres unmarked) [Example 3726] showed a half-inhibitory concentration (IC50) of 73 nM.
The figure for `CCCCC1(CCCC)CS(=O)(=O)c2ccc(N(C)C)cc2C(c2cccc(NC(=S)Nc3ccc(C[n+]4ccc(C)c(C)c4)cc3)c2)N1` (centres unmarked) [Example 3727] is 66 nM.
In the case of `CCCCC1(CCCC)CS(=O)(=O)c2ccc(N(C)C)cc2C(c2cccc(NC(=S)Nc3ccc(C[n+]4cc(C)cc(C)c4)cc3)c2)N1` (centres unmarked) [Example 3729], the IC50 was 88 nM.
`CCCCC1(CCCC)CS(=O)(=O)c2ccc(N(C)C)cc2C(c2cccc(NC(=S)Nc3ccc(C[n+]4cc(C)cc(-c5ccccc5)c4)cc3)c2)N1` (centres unmarked) [Example 3730] displayed a 50% inhibitory concentration (IC50) of 84 nM.
In turn, `CCCCC1(CCCC)CS(=O)(=O)c2ccc(N(C)C)cc2C(c2cccc(NC(=S)Nc3ccc(C[n+]4ccc(CCCO)cc4)cc3)c2)N1` (centres unmarked) [Example 3733] displayed an IC50 of 57 nM.
The figure for `CCCCC1(CCCC)CS(=O)(=O)c2ccc(N(C)C)cc2C(c2cccc(NC(=S)Nc3ccc(C[n+]4ccc(C(C)=O)cc4)cc3)c2)N1` (centres unmarked) [Example 3736] is 50 nM.
As for `CCCCC1(CCCC)CS(=O)(=O)c2ccc(N(C)C)cc2C(c2cccc(NC(=S)Nc3ccc(C[n+]4cccc(C(=O)c5ccccc5)c4)cc3)c2)N1` (centres unmarked) [Example 3748], the half-inhibitory concentration (IC50) came out at 81 nM.
As to `CCCCCCOC(=O)c1ccc[n+](Cc2ccc(NC(=S)Nc3cccc(C4NC(CCCC)(CCCC)CS(=O)(=O)c5ccc(N(C)C)cc54)c3)cc2)c1` (centres unmarked) [Example 3750], it took 75 nM to reach half-maximal inhibition (IC50).
`CCCCC1(CCCC)CS(=O)(=O)c2ccc(N(C)C)cc2C(c2cccc(NC(=S)Nc3ccc(C[n+]4ccc(C(N)=O)cc4)cc3)c2)N1` (centres unmarked) [Example 3754] gave an IC50 of 92 nM.
The figure for `CCCCC1(CCCC)CS(=O)(=O)c2ccc(N(C)C)cc2C(c2cccc(NC(=S)Nc3ccc(C[n+]4ccc(CCc5ccncc5)cc4)cc3)c2)N1` (centres unmarked) [Example 3764] is 80 nM; for `CCCCC1(CCCC)CS(=O)(=O)c2ccc(N(C)C)cc2C(c2cccc(NC(=S)Nc3ccc(C[n+]4cccc5ccccc54)cc3)c2)N1` (centres unmarked) [Example 3768] it is 72 nM.
`CCCCC1(CCCC)CS(=O)(=O)c2ccc(N(C)C)cc2C(c2cccc(NC(=S)Nc3ccc(C[n+]4cccc5cc(C)ccc54)cc3)c2)N1` (centres unmarked) [Example 3770] had an IC50 of 57 nM.
On to `CCCCC1(CCCC)CS(=O)(=O)c2ccc(N(C)C)cc2C(c2cccc(NC(=S)Nc3ccc(C[n+]4cccc5cc(C(C)C)ccc54)cc3)c2)N1` (centres unmarked) [Example 3772], for which half-maximal inhibition (IC50) was put at 89 nM.
The compound `CCCCC1(CCCC)CS(=O)(=O)c2ccc(N(C)C)cc2C(c2cccc(NC(=S)CCCCC[N+]34CCC(CC3)C(O)C4)c2)N1` (centres unmarked) [Example 3854] came in with an IC50 of 28 nM.
The figure for `CCCCC1(CCCC)CS(=O)(=O)c2ccc(N(C)C)cc2C(c2cccc(NC(=S)Nc3ccc(C[n+]4cccc5c4CCCC5)cc3)c2)N1` (centres unmarked) [Example 4221] is 43 nM.
